From patent US8481459B2, “Chemical inhibitors of ethylene biosynthesis” (Academia Sinica, priority 2010, dated 2013)

System: gene expression in etiolated eto1-4 seedlings
Assay: Transcriptional profiling (ATH1 GeneChip microarray) of etiolated eto1-4 seedlings
Format: in vivo, Arabidopsis thaliana
Procedure: For chemical treatments, seeds were sown on 0.5×MS agar medium supplemented with 10 μM chemicals (AVG, compounds 9393, 9370, and 7303) or DMSO (as control). Arabidopsis seeds were stratified in the dark at 4° C. for 4 days, then germinated in the dark for 3 days at 22° C. Approximately 2,000 etiolated seedlings of the wild type or eto1-4 were used to collect tissues for preparation of total RNA in each microarray experiment with Arabidopsis ATH1 GeneChip (Affymetrix). Extraction of RNA followed an established protocol (Chang, et al. (1993) Plant Mol. Biol. Rep. 11, 113-117). Total RNA (10 μg) was used to prepare biotinylated cRNA for hybridization to ATH1 GeneChip in the experiments disclosed herein. Experiments were repeated by 2 independent biological duplicates, and candidate genes present in both experiments were selected for further analysis. The MASS method was used for data analysis and normalization by all sample medium. Candidate genes were selected by the following criteria. First, genes with 1.5-fold differential expression between the wild type and eto1-4 were selected as the master gene pool, which was then used for comparison in treatments with AVG and individual exemplary compounds. Data were presented in hierarchical clustering and Venn diagram format. Agilent GeneSpring GX and Bioconductor software were used to analyze the expression profile data. Gene Ontology descriptions were generated by GeneSpring GX and further referred to the TAR GO database. Raw data are available in the GEO database (http://www.ncbi.nlm.nih.gov/geo) with Accession no. GSE20897.
The filtered and normalized expression data set from 22810 probes on the ATH1 Genechip was used for hierarchical clustering of gene expression profiles for comparison between AVG and the exemplary invention compounds in eto1-4. It was identified that 1,446 genes show at least 1.5-fold difference in expression between the WT and eto1-4 and used them as the master gene pool for clustering analysis (FIG. 7A). […] These genes likely contribute to the etiolated phenotype of eto1-4 by responding to elevated endogenous ethylene. To determine whether the exemplary compounds have specific r overlapping functions with AVG to suppress the eto1-4 phenotype, genes that are regulated by individual exemplary invention compounds and AVG for Venn diagram analysis were clustered (FIG. 7B). More than 63% of genes (356/561 for compound 9393; 389/561 for compound 9370; 399/561 for compound 7303; FIG. 7B) with expression associated with AVG were co-regulated by the exemplary invention compounds, which indicates an overlap function in suppression of the ethylene phenotype in eto1-4. […] Next genes co-regulated by all of the exemplary invention compounds and AVG were examined by performing a clustering analysis using the co-regulated genes identified in FIG. 7B: 356 (compound 9393 vs AVG), 389 (compound 9370 vs AVG) and 399 genes (compound 7303 vs AVG). It was uncovered that 276 genes were co-regulated by all of the exemplary invention compounds and AVG (FIG. 7C and Table 2). On the basis of GO descriptions generated by Gene Spring GX and TAIR database, the 276 genes were divided into subgroups related to their biological functions (Table 2). […] In addition, stress- and pathogenesis-related genes were among the co-regulated genes, possibly because ethylene is involved in both biotic and abiotic stresses.
Genes (1446 non-redundant loci) were selected by 1.5-fold differential expression between eto1-4 and WT as the master pool for analysis. These genes were used for comparison between chemical treatments by AVG and the exemplary invention compounds. The finalized 276 genes that are co-regulated by AVG and all of the exemplary invention compounds are shown. Locus ID also present in Nemhauser et al. (Nemhauser, et al. (2006) Cell 126, 467-475).

[1] = of 1446 genes differentially expressed between WT and eto1-4, 10 μM
[2] = ratio eto1-4 treated to eto1-4 (no treatment)

COc1ccc(C2CC(=O)c3cnc(Nc4ccccc4)nc3C2)cc1 (centres unmarked) [Compound 7303]
number of genes co-regulated with AVG (of 561 genes associated with AVG, 10 μM): 399 genes
number of genes regulated (expression reverted close to WT) [1]: 650 genes
percentage of genes regulated (expression reverted close to WT) [1]: 45.0%
number of genes regulated specifically, not related to AVG treatment (of all genes regulated by the compound (629, 728, 650), 10 μM): 251 genes
Signal Fold Change AT1G03457, unknown biological function [2]: 3.04
Signal Fold Change AT1G03660, unknown biological function [2]: 1.59
Signal Fold Change AT1G05010 ACC oxidase [2]: 0.30
Signal Fold Change AT1G05760 jacalin lectin protein [2]: 3.70
Signal Fold Change AT1G06720 expressed protein [2]: 1.26
Signal Fold Change AT1G07280, unknown biological function [2]: 0.37
Signal Fold Change AT1G07560 leucine-rich repeat protein kinase [2]: 1.99
Signal Fold Change AT1G08650 phosphoenolpyruvate carboxylase kinase [2]: 3.40
Signal Fold Change AT1G08990 glycogenin glucosyltransferase [2]: 2.60
Signal Fold Change AT1G09530 phytochrome interacting factor 3 [2]: 0.29
Signal Fold Change AT1G10760 starch excess protein (SEX1) [2]: 0.43
Signal Fold Change AT1G13430, response to cytokinin stimulus, sulfotransferase protein [2]: 0.34
Signal Fold Change AT1G14540 anionic peroxidase [2]: 0.42
Signal Fold Change AT1G15380 lactoylglutathione lyase [2]: 2.99
Signal Fold Change AT1G17970, unknown biological function [2]: 2.35
Signal Fold Change AT1G18880 proton-dependent oligopeptide transport (POT) protein [2]: 2.51
Signal Fold Change AT1G20190, cell wall organization and biogenesis, expansin (EXP11) [2]: 0.43
Signal Fold Change AT1G22740 Ras-related protein (RAB7) [2]: 3.52
Signal Fold Change AT1G23060, unknown biological function [2]: 0.35
Signal Fold Change AT1G26930, unknown biological function [2]: 0.40
Signal Fold Change AT1G27380 p21-rho-binding domain-containing protein [2]: 2.14
Signal Fold Change AT1G29520, unknown biological function [2]: 2.27
Signal Fold Change AT1G30750, unknown biological function [2]: 2.87
Signal Fold Change AT1G31710 copper amine oxidase [2]: 5.43
Signal Fold Change AT1G32410 vacuolar protein sorting 55 protein [2]: 1.75
Signal Fold Change AT1G32560 late embryogenesis abundant group 1 domain-containing protein [2]: 1.89
Signal Fold Change AT1G33470, unknown biological function [2]: 2.38
Signal Fold Change AT1G33790, unknown biological function [2]: 0.21
Signal Fold Change AT1G34040, unknown biological function [2]: 2.17
Signal Fold Change AT1G35350, unknown biological function [2]: 4.37
Signal Fold Change AT1G35612, unknown biological function [2]: 3.19
Signal Fold Change AT1G42470, unknown biological function [2]: 4.79
Signal Fold Change AT1G44800, unknown biological function [2]: 2.25
Signal Fold Change AT1G44830 AP2-containing transcription factor [2]: 0.38
Signal Fold Change AT1G48480 leucine-rich repeat trans-membrane protein kinase [2]: 3.43
Signal Fold Change AT1G49660 expressed protein [2]: 0.47
Signal Fold Change AT1G50560 cytochrome P450 [2]: 2.50
Signal Fold Change AT1G52830 auxin-responsive protein [2]: 4.43
Signal Fold Change AT1G56010 transcription activator NAC1 [2]: 2.97
Signal Fold Change AT1G56020, unknown biological function [2]: 0.49
Signal Fold Change AT1G58070, unknown biological function [2]: 2.37
Signal Fold Change AT1G59590, unknown biological function [2]: 3.94
Signal Fold Change AT1G59740 proton-dependent oligopeptide transport (POT) protein [2]: 0.32
Signal Fold Change AT1G62290 aspartyl protease protein [2]: 0.38
Signal Fold Change AT1G62510 lipid transfer protein [2]: 2.20
Signal Fold Change AT1G62620, unknown biological function [2]: 3.52
Signal Fold Change AT1G64200 V-ATPase E subunit [2]: 2.73
Signal Fold Change AT1G65510, unknown biological function [2]: 4.19
Signal Fold Change AT1G65920, unknown biological function [2]: 0.36
Signal Fold Change AT1G66230 myb transcription factor (MYB20) [2]: 3.14
Signal Fold Change AT1G67030 zinc finger (C2H2 type) protein [2]: 10.77
Signal Fold Change AT1G68230, unknown biological function [2]: 2.59
Signal Fold Change AT1G68520 zinc finger (B-box type) protein [2]: 1.15
Signal Fold Change AT1G69570 Dof-type zinc finger-containing protein [2]: 6.31
Signal Fold Change AT1G70210 cyclin delta-1 [2]: 3.72
Signal Fold Change AT1G70850 Bet v I allergen protein [2]: 22.18
Signal Fold Change AT1G70890 major latex protein [2]: 5.05
Signal Fold Change AT1G71030 myb transcription factor (MYB2) [2]: 8.09
Signal Fold Change AT1G71740, unknown biological function [2]: 3.04
Signal Fold Change AT1G72230 plastocyanin like protein [2]: 2.98
Signal Fold Change AT1G73220 sugar transporter protein [2]: 5.76
Signal Fold Change AT1G73300 serine carboxypeptidase S10 protein [2]: 1.69
Signal Fold Change AT1G73310 serine carboxypeptidase S10 protein [2]: 4.07
Signal Fold Change AT1G73330 protease inhibitor [2]: 31.27
Signal Fold Change AT1G73590 auxin efflux carrier protein [2]: 2.03
Signal Fold Change AT1G73640, small GTPase mediated signal transduction, Ras-related GTP-binding protein [2]: 2.12
Signal Fold Change AT1G73830 bHLH protein [2]: 0.20
Signal Fold Change AT1G75500, unknown biological function [2]: 3.18
Signal Fold Change AT1G76220, unknown biological function [2]: 4.28
Signal Fold Change AT1G76500, photomorphogenesis, DNA-binding protein [2]: 0.38
Signal Fold Change AT1G76540 cell division control protein [2]: 2.97
Signal Fold Change AT1G76790, unknown biological function [2]: 3.71
Signal Fold Change AT1G78240 dehydration-responsive protein [2]: 0.54
Signal Fold Change AT1G80380 phosphoribulokinase [2]: 2.20
Signal Fold Change AT2G01910, microtubule nucleation, microtubule associated protein (MAP65/ASE1) protein [2]: 2.92
Signal Fold Change AT2G02820 myb transcription factor (MYB88) [2]: 4.90
Signal Fold Change AT2G02850 plantacyanin [2]: 0.15
Signal Fold Change AT2G16580 auxin-responsive protein [2]: 2.29
Signal Fold Change AT2G16990, unknown biological function [2]: 3.14
Signal Fold Change AT2G19590 ACC oxidase [2]: 0.28
Signal Fold Change AT2G19970, unknown biological function [2]: 3.39
Signal Fold Change AT2G20080, unknown biological function [2]: 5.75
Signal Fold Change AT2G20670, unknown biological function [2]: 4.29
Signal Fold Change AT2G21820, unknown biological function [2]: 1.33
Signal Fold Change AT2G21880 Ras-related GTP-binding protein [2]: 4.62
Signal Fold Change AT2G22860 phytosulfokines 2 (PSK2) [2]: 2.10
Signal Fold Change AT2G24150 expressed protein (response to hormone stimulus) [2]: 1.90
Signal Fold Change AT2G25900 zinc finger (CCCH-type) protein [2]: 1.73
Signal Fold Change AT2G26070 expressed protein (response to ethylene stimulus) [2]: 0.28
Signal Fold Change AT2G26440 pectinesterase protein [2]: 0.27
Signal Fold Change AT2G26740 epoxide hydrolase [2]: 0.26
Signal Fold Change AT2G27140 heat shock protein [2]: 2.74
Signal Fold Change AT2G27370, unknown biological function [2]: 2.51
Signal Fold Change AT2G28305, unknown biological function [2]: 2.57
Signal Fold Change AT2G28410, unknown biological function [2]: 2.79
Signal Fold Change AT2G29340 short-chain dehydrogenase [2]: 0.39
Signal Fold Change AT2G29440, toxin catabolic process, glutathione S-transferase [2]: 0.26
Signal Fold Change AT2G30360 CBL-interacting protein kinase 11 (CIPK11) [2]: 3.63
Signal Fold Change AT2G33380 calcium-binding RD20 protein [2]: 0.22
Signal Fold Change AT2G33990, unknown biological function [2]: 2.69
Signal Fold Change AT2G34300, unknown biological function [2]: 0.39
Signal Fold Change AT2G34500 cytochrome P450 [2]: 8.32
Signal Fold Change AT2G34510, unknown biological function [2]: 2.21
Signal Fold Change AT2G34700, unknown biological function [2]: 0.31
Signal Fold Change AT2G35300 late embryogenesis abundant group 1 domain-containing protein [2]: 2.86
Signal Fold Change AT2G35710 glycogenin glucosyltransferase [2]: 2.25
Signal Fold Change AT2G36350 protein kinase [2]: 0.54
Signal Fold Change AT2G36410, unknown biological function [2]: 3.05
Signal Fold Change AT2G37130 peroxidase 21 [2]: 2.23
Signal Fold Change AT2G38760, unknown biological function [2]: 5.36
Signal Fold Change AT2G38790, unknown biological function [2]: 3.21
Signal Fold Change AT2G39010 aquaporin [2]: 1.95
Signal Fold Change AT2G39310, unknown biological function [2]: 3.40
Signal Fold Change AT2G39980, unknown biological function [2]: 0.25
Signal Fold Change AT2G40420 amino acid transporter [2]: 3.56
Signal Fold Change AT2G41090, unknown biological function [2]: 0.11
Signal Fold Change AT2G41230, unknown biological function [2]: 0.05
Signal Fold Change AT2G42320, unknown biological function [2]: 0.54
Signal Fold Change AT2G43050 pectinesterase protein [2]: 3.42
Signal Fold Change AT2G43535 trypsin inhibitor [2]: 6.32
Signal Fold Change AT2G44110 seven transmembrane MLO protein [2]: 0.43
Signal Fold Change AT2G44130 kelch repeat containing F-box protein [2]: 4.62
Signal Fold Change AT2G47510 fumarate hydratase [2]: 0.48
Signal Fold Change AT2G47550 pectinesterase protein [2]: 0.49
Signal Fold Change AT2G48030, unknown biological function [2]: 2.22
Signal Fold Change AT3G04010 glycosyl hydrolase [2]: 3.80
Signal Fold Change AT3G05990, signal transduction, phosphodiesterase leucine-rich repeat protein [2]: 2.33
Signal Fold Change AT3G09020, unknown biological function [2]: 3.42
Signal Fold Change AT3G09780 protein kinase [2]: 0.40
Signal Fold Change AT3G10080, unknown biological function [2]: 2.14
Signal Fold Change AT3G10340 phenylalanine ammonia-lyase [2]: 2.63
Signal Fold Change AT3G11550, unknown biological function [2]: 2.97
Signal Fold Change AT3G12030, DNA repair, expressed protein [2]: 2.06
Signal Fold Change AT3G12500 basic endocexemplary inase [2]: 3.58
Signal Fold Change AT3G13980, unknown biological function [2]: 6.58
Signal Fold Change AT3G14370 protein kinase [2]: 0.36
